Where “and” joins values, the source holds several entries; their conditions need not be identical. Equal values may be shown once.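 1) Cells in 96-well plates. 2) Compound, 48 h, 5 concentrations. 3) Linear interpolation between surrounding doses. 4) Unreached endpoint = highest concentration. Abbreviation: GI50, concentration required for 50% inhibition of growth. TGI: total growth inhibition.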
Legend:
Assay in all cases: NCI-60 cell line screen, 48 h
IGROV1 ovarian = system: IGROV1 ovarian
SR leukemia = system: SR leukemia
LOX IMVI melanoma = system: LOX IMVI melanoma
MOLT-4 leukemia = system: MOLT-4 leukemia
RXF 393 renal = system: RXF 393 renal
M14 melanoma = system: M14 melanoma
ACHN renal = system: ACHN renal
OVCAR-8 ovarian = system: OVCAR-8 ovarian
HOP-92 NSCLC = system: HOP-92 NSCLC
CAKI-1 renal = system: CAKI-1 renal
SK-MEL-2 melanoma = system: SK-MEL-2 melanoma
HT29 colon = system: HT29 colon
MDA-MB-435 = system: MDA-MB-435
786-0 renal = system: 786-0 renal
HS 578T breast = system: HS 578T breast
HOP-62 NSCLC = system: HOP-62 NSCLC
DU-145 prostate = system: DU-145 prostate
SW-620 colon = system: SW-620 colon
HCC-2998 colon = system: HCC-2998 colon
A549 NSCLC = system: A549 NSCLC
HCT-116 colon = system: HCT-116 colon
SN12C renal = system: SN12C renal
NCI-H226 lung = system: NCI-H226 lung
A498 renal = system: A498 renal
SNB-75 CNS = system: SNB-75 CNS
CCRF-CEM leukemia = system: CCRF-CEM leukemia
T-47D breast = system: T-47D breast
NCI-H522 lung = system: NCI-H522 lung
SNB-19 CNS = system: SNB-19 CNS
EKVX NSCLC = system: EKVX NSCLC
U251 CNS = system: U251 CNS
UACC-257 melanoma = system: UACC-257 melanoma
TK-10 renal = system: TK-10 renal
SF-268 CNS = system: SF-268 CNS
PC-3 prostate = system: PC-3 prostate
UACC-62 melanoma = system: UACC-62 melanoma
BT-549 breast = system: BT-549 breast
NCI-H23 lung = system: NCI-H23 lung
SF-295 CNS = system: SF-295 CNS
KM12 colon = system: KM12 colon
SK-MEL-28 melanoma = system: SK-MEL-28 melanoma
OVCAR-4 ovarian = system: OVCAR-4 ovarian
SK-MEL-5 melanoma = system: SK-MEL-5 melanoma
COLO 205 colon = system: COLO 205 colon
NCI/ADR-RES ovarian = system: NCI/ADR-RES ovarian
OVCAR-5 ovarian = system: OVCAR-5 ovarian
K-562 leukemia = system: K-562 leukemia
SK-OV-3 ovarian = system: SK-OV-3 ovarian
HL-60(TB) leukemia = system: HL-60(TB) leukemia
UO-31 renal = system: UO-31 renal
HCT-15 colon = system: HCT-15 colon
MALME-3M melanoma = system: MALME-3M melanoma
NCI-H460 lung = system: NCI-H460 lung
MCF7 breast = system: MCF7 breast
SF-539 CNS = system: SF-539 CNS
RPMI-8226 leukemia = system: RPMI-8226 leukemia
MDA-MB-231 breast = system: MDA-MB-231 breast
OVCAR-3 ovarian = system: OVCAR-3 ovarian

## COc1cccc(Nc2ncnn3ccc(CN4CC[C@@H](N)[C@H](O)C4)c23)c1
IGROV1 ovarian
  GI50: 0.407 µM and 0.0561 µM
  TGI: 6.79 µM and 2.73 µM
SR leukemia
  GI50: 5.19 µM and > 4.99 µM
  TGI: 40.7 µM and > 10 µM
LOX IMVI melanoma
  GI50: 4.58 µM and 1.33 µM
  TGI: 21.1 µM and > 5.65 µM
MOLT-4 leukemia
  GI50: 5.68 µM and 2.26 µM
  TGI: 33.2 µM and > 10 µM
RXF 393 renal
  GI50: 0.601 µM and 0.405 µM
  TGI: 5.11 µM and 2.41 µM
M14 melanoma
  GI50: 20.4 µM and > 5.03 µM
  TGI: 36 µM and > 10 µM
ACHN renal
  GI50: 0.0305 µM and 0.0373 µM
  TGI: 6.96 µM and 7.74 µM
OVCAR-8 ovarian
  GI50: 2.73 µM and 1.66 µM
  TGI: 40.3 µM and > 10 µM
HOP-92 NSCLC
  GI50: 0.125 µM and 0.194 µM
  TGI: 5.21 µM and > 6.86 µM
CAKI-1 renal
  GI50: 0.2 µM and 0.242 µM
  TGI: 2.52 µM and > 4.35 µM
SK-MEL-2 melanoma
  GI50: 19.9 µM and > 4.7 µM
  TGI: 39.8 µM and > 7.19 µM
HT29 colon
  GI50: 8.67 µM and > 2.25 µM
  TGI: > 56.6 µM
MDA-MB-435
  GI50: 14.8 µM and > 4.71 µM
  TGI: 29.9 µM and > 10 µM
786-0 renal
  GI50: 1.08 µM and 1.18 µM
  TGI: 20.6 µM and > 10 µM
HS 578T breast
  GI50: 0.698 µM and 0.395 µM
  TGI: 5.18 µM and 2.69 µM
HOP-62 NSCLC
  GI50: 4.22 µM and 0.506 µM
  TGI: 27.3 µM and > 10 µM
DU-145 prostate
  GI50: 1.59 µM and 0.927 µM
  TGI: > 100 µM
SW-620 colon
  GI50: 17.7 µM and > 4.35 µM
  TGI: 44.5 µM and > 10 µM
HCC-2998 colon
  GI50: 15.6 µM and > 3.65 µM
  TGI: 36.1 µM and > 9.59 µM
A549 NSCLC
  GI50: 2.22 µM and 0.928 µM
  TGI: 23.6 µM and > 7.05 µM
HCT-116 colon
  GI50: 6.69 µM and 2.55 µM
  TGI: 26.4 µM and > 6.8 µM
SN12C renal
  GI50: 0.265 µM and 0.304 µM
  TGI: 18.5 µM and > 10 µM
NCI-H226 lung
  GI50: 2.66 µM and 1.38 µM
  TGI: 13 µM and > 8.94 µM
A498 renal
  GI50: 1.12 µM and 0.861 µM
  TGI: 4.72 µM and 3.75 µM
SNB-75 CNS
  GI50: 0.102 µM and 0.043 µM
  TGI: 0.808 µM and 0.49 µM
CCRF-CEM leukemia
  GI50: 25.2 µM and > 4.58 µM
  TGI: > 100 µM
T-47D breast
  TGI: 29.2 µM and > 6.86 µM
NCI-H522 lung
  GI50: 0.0245 µM and 0.0175 µM
  TGI: 15.1 µM and > 4.56 µM
SNB-19 CNS
  GI50: 14.4 µM and 8.98 µM
  TGI: 97.7 µM and > 10 µM
EKVX NSCLC
  GI50: 0.0275 µM and 0.0282 µM
  TGI: > 100 µM
U251 CNS
  GI50: 14.4 µM and > 5.46 µM
  TGI: 49.3 µM and > 10 µM
UACC-257 melanoma
  GI50: 17.5 µM and > 5.79 µM
  TGI: 34 µM and > 10 µM
TK-10 renal
  GI50: 0.0322 µM and 0.0167 µM
  TGI: 1.65 µM and 1.5 µM
SF-268 CNS
  GI50: 4.42 µM and 1.62 µM
  TGI: 99.7 µM and > 6.67 µM
PC-3 prostate
  GI50: 15.2 µM and > 2.39 µM
  TGI: > 100 µM
UACC-62 melanoma
  GI50: 20.4 µM and > 3.85 µM
  TGI: 41.3 µM and > 9.23 µM
BT-549 breast
  GI50: 14.2 µM and > 4.68 µM
  TGI: 47.7 µM and > 7.41 µM
NCI-H23 lung
  GI50: 2.53 µM and 3.05 µM
  TGI: 18.4 µM and > 10 µM
SF-295 CNS
  GI50: 12.2 µM and > 5.6 µM
  TGI: 45.5 µM and > 10 µM
KM12 colon
  GI50: 3.31 µM and 2.88 µM
  TGI: 15.3 µM and > 10 µM
SK-MEL-28 melanoma
  GI50: 17 µM and > 5.4 µM
  TGI: 31.1 µM and > 10 µM
OVCAR-4 ovarian
  GI50: 13.3 µM and > 5.11 µM
  TGI: 55.4 µM and > 10 µM
SK-MEL-5 melanoma
  GI50: 14.5 µM and > 5.6 µM
  TGI: 27.8 µM and > 10 µM
COLO 205 colon
  GI50: 3.73 µM and 3.13 µM
  TGI: 18.2 µM and > 6.18 µM
NCI/ADR-RES ovarian
  GI50: 4.32 µM and 2.93 µM
  TGI: 39.7 µM and > 10 µM
OVCAR-5 ovarian
  GI50: 0.467 µM and 0.357 µM
  TGI: 32.5 µM and > 10 µM
K-562 leukemia
  GI50: 0.285 µM and 0.168 µM
  TGI: 10.2 µM and > 10 µM
SK-OV-3 ovarian
  GI50: 0.0386 µM and 0.0322 µM
  TGI: 0.772 µM and 0.129 µM
HL-60(TB) leukemia
  GI50: 20.3 µM and > 4.71 µM
  TGI: 41.1 µM and > 8.1 µM
UO-31 renal
  GI50: 0.145 µM and 0.132 µM
  TGI: 5.02 µM and 4.12 µM
HCT-15 colon
  GI50: 3.24 µM and 2.15 µM
  TGI: 97.9 µM and > 10 µM
MALME-3M melanoma
  GI50: 17.6 µM and > 4.83 µM
  TGI: 35.2 µM and > 10 µM
NCI-H460 lung
  GI50: 18.5 µM and > 4.66 µM
  TGI: 68.1 µM and > 9.16 µM
MCF7 breast
  GI50: 11.3 µM and > 4.2 µM
  TGI: 24.5 µM and > 8.69 µM
SF-539 CNS
  GI50: 1.72 µM and 1.08 µM
  TGI: 13.5 µM and > 7.44 µM
RPMI-8226 leukemia
  GI50: 20.9 µM and > 5.39 µM
  TGI: 68 µM and > 10 µM
MDA-MB-231 breast
  GI50: 2.3 µM and 1.54 µM
  TGI: 25.9 µM and > 10 µM
OVCAR-3 ovarian
  GI50: 3.92 µM and 1.63 µM
  TGI: > 60.8 µM
